Earlier results as cited in US20050245504A1, “Treatment of diseases with combinations of alpha 7 Nicotinic Acetylcholine Receptor agonists and other compounds” (priority 2002, published 2005).
Like-named read-outs stand apart in the source and are kept apart here.

Legend:
[1] = target: T1, 5HT3R (Homo sapiens, UniProt P46098)
T1 sequence (P46098 24-478): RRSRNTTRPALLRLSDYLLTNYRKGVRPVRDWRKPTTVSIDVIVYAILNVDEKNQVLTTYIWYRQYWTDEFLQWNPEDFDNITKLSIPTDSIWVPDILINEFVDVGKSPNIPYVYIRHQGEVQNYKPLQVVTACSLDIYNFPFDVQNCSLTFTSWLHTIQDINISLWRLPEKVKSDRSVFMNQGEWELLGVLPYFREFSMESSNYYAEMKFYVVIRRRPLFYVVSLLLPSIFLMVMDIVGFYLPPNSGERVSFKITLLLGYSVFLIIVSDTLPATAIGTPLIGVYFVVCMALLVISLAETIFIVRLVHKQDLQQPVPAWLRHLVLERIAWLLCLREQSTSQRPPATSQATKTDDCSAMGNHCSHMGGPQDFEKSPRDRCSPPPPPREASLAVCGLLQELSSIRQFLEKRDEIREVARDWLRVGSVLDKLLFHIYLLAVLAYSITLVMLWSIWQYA

[2] = target: α7 nAChR (Homo sapiens, UniProt P36544)
Chain of α7 nAChR (P36544 23-502): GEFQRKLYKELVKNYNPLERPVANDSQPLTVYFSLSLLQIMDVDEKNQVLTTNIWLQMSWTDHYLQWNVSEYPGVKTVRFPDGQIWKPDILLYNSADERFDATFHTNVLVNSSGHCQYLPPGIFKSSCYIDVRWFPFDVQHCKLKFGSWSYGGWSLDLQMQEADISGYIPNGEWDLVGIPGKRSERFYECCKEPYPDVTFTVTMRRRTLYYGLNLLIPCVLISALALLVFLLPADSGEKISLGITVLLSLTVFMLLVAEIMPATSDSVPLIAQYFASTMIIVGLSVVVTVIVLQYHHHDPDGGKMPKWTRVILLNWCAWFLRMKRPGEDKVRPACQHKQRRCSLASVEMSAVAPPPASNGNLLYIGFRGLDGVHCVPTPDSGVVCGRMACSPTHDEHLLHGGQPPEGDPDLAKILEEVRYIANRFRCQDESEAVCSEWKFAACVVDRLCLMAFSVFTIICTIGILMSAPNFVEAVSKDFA

Cc1cc([C@@H]2CCCN2C)on1 [ABT-418]
cognition and attention (clinical trials of Alzheimer's disease and attention-deficit disorders): improves cognition and attention

CN1CCCC1c1cccnc1 (stereo not shown) [nicotine]
cognition and attention (human, in vivo): increases cognition and attention

COc1ccc(/C=C2\CCCN=C2c2cccnc2)c(OC)c1 [GTS-21]
activity at the 5HT3R [1]: little activity

Cc1nccn1CC1CCc2c(c3ccccc3n2C)C1=O (stereo not shown) [Ondansetron]
activity at the α7 nAChR [2]: little activity
